Converted amounts (≈) assume the structure as drawn. Where two headings read alike, the source gives them in different places.
How the values were obtained:
[1] = tested on: glycated human erythrocyte; format: cell-based
C. neoformans (ATCC H99) = experiment: microbe, parasite or virus in culture; format: cell-based; conditions: Cryptococcus neoformans
Drosophila melanogaster = conditions: 48 hours
S. saprophyticus = format: cell-based
K562 = format: cell-based
[2] = tested on: learning and memory behavior; format: in vivo, Swiss mice; conditions: 10mg/kg, intragastrically
K562 cells = format: cell-based
LUCENA cells = format: cell-based
[3] = target: dihydroorotate dehydrogenase from Schistosoma mansoni (SmDHODH) (Schistosoma mansoni, UniProt G4VFD7)
Chain of dihydroorotate dehydrogenase from Schistosoma mansoni (SmDHODH) (G4VFD7 23-379 limits assumed): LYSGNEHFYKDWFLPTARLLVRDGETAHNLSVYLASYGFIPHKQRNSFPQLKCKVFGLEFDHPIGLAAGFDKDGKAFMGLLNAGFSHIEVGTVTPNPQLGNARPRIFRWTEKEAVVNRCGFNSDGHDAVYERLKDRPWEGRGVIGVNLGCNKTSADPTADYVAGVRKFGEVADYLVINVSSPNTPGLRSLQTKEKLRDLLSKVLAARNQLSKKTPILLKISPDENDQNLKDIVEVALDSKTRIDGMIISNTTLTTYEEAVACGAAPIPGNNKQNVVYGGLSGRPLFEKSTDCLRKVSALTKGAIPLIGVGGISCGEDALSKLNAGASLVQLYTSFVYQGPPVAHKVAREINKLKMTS

[4] = tested on: MV released from growth-plate femurs chondrocytes; format: biochemical, chicken
[5] = tested on: inflammation, nociception and oxidative stress; conditions: mouse, in vivo
[6] = target: TRPV1 channel heterologously expressed in HEK293 cells (Homo sapiens, UniProt Q8NER1); experiment: cell-based; conditions: HEK293, read-out: % inhibition of capsaicin-induced TRPV1 currents
Chain of TRPV1 channel heterologously expressed in HEK293 cells (Q8NER1 whole entry): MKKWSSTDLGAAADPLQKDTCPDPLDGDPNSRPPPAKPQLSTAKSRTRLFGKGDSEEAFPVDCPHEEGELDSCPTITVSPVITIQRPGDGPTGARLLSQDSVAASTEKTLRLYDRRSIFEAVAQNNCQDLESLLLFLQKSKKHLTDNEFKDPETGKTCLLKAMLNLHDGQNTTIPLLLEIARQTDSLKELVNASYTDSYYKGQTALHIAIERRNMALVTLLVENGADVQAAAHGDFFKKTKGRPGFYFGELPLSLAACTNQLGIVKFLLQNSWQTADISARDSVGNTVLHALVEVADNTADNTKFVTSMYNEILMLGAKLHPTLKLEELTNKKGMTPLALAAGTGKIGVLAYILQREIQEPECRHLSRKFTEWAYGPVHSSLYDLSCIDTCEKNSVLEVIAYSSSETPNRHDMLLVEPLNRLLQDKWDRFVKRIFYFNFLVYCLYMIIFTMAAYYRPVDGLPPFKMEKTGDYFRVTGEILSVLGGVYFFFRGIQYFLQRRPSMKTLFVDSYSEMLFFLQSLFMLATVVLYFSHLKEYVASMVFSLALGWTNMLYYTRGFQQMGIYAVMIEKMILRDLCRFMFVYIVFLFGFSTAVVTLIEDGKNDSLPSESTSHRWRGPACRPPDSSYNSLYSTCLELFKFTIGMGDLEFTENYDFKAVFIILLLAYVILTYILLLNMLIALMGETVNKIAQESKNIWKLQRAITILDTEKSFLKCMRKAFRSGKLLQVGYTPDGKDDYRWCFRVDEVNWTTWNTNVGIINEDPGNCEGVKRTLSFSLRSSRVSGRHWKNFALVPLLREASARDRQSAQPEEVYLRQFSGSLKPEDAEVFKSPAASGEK

[7] = tested on: CE-AρBza serine proteases; format: biochemical, Canavalia ensiformis
[8] = tested on: thermal and mechanical sensitivities; RS and NOx levels; format: in vivo, Swiss mice; conditions: 1 mg kg-1, intragastric route
[9] = target: Ca2+-dependent BK channel (Homo sapiens, UniProt Q12791); format: cell-based
Chain of Ca2+-dependent BK channel (Q12791 whole entry): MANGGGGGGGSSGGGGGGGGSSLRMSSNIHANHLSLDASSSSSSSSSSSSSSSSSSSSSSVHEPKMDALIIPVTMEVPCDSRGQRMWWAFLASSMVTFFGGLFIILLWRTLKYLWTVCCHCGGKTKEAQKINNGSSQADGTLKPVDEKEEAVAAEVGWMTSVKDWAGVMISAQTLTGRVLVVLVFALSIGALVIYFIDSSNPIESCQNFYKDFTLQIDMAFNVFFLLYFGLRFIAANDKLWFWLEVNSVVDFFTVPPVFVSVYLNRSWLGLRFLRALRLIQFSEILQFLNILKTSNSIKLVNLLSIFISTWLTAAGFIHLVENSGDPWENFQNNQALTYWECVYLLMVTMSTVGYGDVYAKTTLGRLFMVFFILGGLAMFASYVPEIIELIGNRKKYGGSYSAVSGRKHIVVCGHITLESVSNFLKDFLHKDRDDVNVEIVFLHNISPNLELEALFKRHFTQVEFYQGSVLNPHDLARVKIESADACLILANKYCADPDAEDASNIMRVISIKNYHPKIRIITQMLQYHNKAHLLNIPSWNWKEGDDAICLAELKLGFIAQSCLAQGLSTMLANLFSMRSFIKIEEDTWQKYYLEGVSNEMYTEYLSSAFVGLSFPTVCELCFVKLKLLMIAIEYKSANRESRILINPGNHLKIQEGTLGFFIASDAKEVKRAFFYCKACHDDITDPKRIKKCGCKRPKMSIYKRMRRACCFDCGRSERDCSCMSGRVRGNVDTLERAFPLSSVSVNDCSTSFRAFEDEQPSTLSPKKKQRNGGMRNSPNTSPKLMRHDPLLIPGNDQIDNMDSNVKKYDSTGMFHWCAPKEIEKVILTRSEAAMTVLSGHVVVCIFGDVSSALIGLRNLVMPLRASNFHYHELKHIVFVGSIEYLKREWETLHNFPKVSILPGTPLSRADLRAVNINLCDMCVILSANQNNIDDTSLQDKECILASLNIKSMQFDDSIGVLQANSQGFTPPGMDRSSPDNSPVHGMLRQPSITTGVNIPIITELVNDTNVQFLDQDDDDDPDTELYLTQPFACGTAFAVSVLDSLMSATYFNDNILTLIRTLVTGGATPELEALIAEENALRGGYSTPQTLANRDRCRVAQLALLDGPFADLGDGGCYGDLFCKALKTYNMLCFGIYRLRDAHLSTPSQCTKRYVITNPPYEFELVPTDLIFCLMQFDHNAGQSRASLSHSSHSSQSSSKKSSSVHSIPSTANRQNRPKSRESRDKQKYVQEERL

IGR39 cells = format: cell-based
gill V(H+)-ATPase = format: biochemical, Macrobrachium amazonicum; conditions: read-out: constant enzyme inhibitor, 25 °C
α-synuclein = α-synuclein (Homo sapiens, UniProt P37840); format: cell-based, Saccharomyces cerevisiae; conditions: 0.1 mM, without fermentation
paw edema = conditions: in vivo
[10] = tested on: oral streptococci biofilm; format: cell-based, Streptococcus; conditions: all species
[11] = 2 mg/ml
[12] = tested on: Leishmania braziliensis old yellow enzyme (LbOYE); format: biochemical
rat serum albumin (RSA) = rat serum albumin (RSA) (Rattus norvegicus, UniProt P02770); format: binding; conditions: interaction density function method; two cooperative sites
Chain of rat serum albumin (RSA) (P02770 25-608): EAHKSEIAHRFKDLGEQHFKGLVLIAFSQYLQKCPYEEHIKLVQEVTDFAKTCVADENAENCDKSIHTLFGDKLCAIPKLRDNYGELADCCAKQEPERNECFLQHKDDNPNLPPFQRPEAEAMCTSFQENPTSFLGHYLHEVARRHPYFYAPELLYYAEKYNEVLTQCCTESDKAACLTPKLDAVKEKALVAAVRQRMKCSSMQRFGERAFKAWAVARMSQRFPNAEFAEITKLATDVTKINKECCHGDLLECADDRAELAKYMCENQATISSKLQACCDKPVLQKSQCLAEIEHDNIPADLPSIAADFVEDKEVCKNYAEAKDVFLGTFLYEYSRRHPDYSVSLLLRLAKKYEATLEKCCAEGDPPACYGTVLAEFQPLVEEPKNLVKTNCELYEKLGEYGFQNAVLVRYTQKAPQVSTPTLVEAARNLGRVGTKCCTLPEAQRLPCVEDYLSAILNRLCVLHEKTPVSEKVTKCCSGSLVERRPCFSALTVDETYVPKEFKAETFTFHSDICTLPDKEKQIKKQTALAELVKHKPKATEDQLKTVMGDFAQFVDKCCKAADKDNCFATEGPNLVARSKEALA

CC(=O)O[C@H]1C[C@@H]2CC[C@@H]3[C@H](CC[C@@]4(C)[C@H]3C[C@H]([N+]3(C)CCCCC3)[C@@H]4OC(C)=O)[C@@]2(C)C[C@@H]1N1CCCCC1 [V, vecuronium]
surface viscosity (η) [1]: increase

CCCSc1ccc2nc(NC(=O)OC)[nH]c2c1 [Albendazole]
MIC (C. neoformans (ATCC H99)): 0.047 to 3.12 µM (≈ 0.0125 to 0.829 µg/mL)

COc1cc2c(c(OC)c1OC)-c1ccc(OC)c(=O)cc1[C@@H](NC(C)=O)CC2 [COL, colchicine]
survival rate (Drosophila melanogaster; 0.001-0.010 mg/mL): did not affect the fly survival rate | TBARS levels (Drosophila melanogaster): elevated in the 0.0025 mg/mL and 0.005 mg/mL groups | reactive species (RS) levels (Drosophila melanogaster): increase in RS levels at concentrations of 0.0025 and 0.005 mg/mL

CN(C)C(=N)N=C(N)N [metformin]
interaction with cisplatin (K562 cell line): synergism

CN[C@H](CC(C)C)C(=O)N[C@H]1C(=O)N[C@@H](CC(N)=O)C(=O)N[C@H]2C(=O)N[C@H]3C(=O)N[C@H](C(=O)N[C@H](C(=O)O)c4cc(O)cc(O)c4-c4cc3ccc4O)[C@H](O)c3ccc(c(Cl)c3)Oc3cc2cc(c3O[C@@H]2O[C@H](CO)[C@@H](O)[C@H](O)[C@H]2O[C@H]2C[C@](C)(N)[C@H](O)[C@H](C)O2)Oc2ccc(cc2Cl)[C@H]1O [vancomycin]
reduction of the MIC value in combination (S. saprophyticus): 4 times

NC(=O)NC1NC(=O)NC1=O (centres unmarked) [allantoin]
death caused by cisplatin (K562): reduction

COc1ccc(Sc2ccc3nsnc3c2)cc1 [MTDZ, 5-((4-methoxyphenyl)thio)benzo[c][1,2,5]thiadiazole]
behavioral changes caused by SCO [2]: attenuated the behavioral changes caused by SCO

sodium selenite [Na2SeO3]
proliferation (K562 cells): significant reduction | mitochondrial membrane potential (JC-1) (K562 cells; 24 hours): significant reduction for all concentration | cell viability (MTT) (K562 cells; 48 hours): significant reduced only in 100 μM or 1000 μM | reduction in cell number (LUCENA cells; 1000 μM, 48 hours): 66% | mitochondrial membrane potential (JC-1) (LUCENA cells; 24 hours): only at concentrations of 100 μM and 1000 μM

COC(=O)Nc1nc2ccc(Sc3ccccc3)cc2[nH]1 [fenbendazole]
MIC (C. neoformans (ATCC H99)): 0.047 to 3.12 µM (≈ 0.0141 to 0.935 µg/mL)

O=C1C(O)=C([C@H]2CC[C@H](c3ccc(Cl)cc3)CC2)C(=O)c2ccccc21 [atovaquone]
inhibition of SmDHODH [3]: in the nanomolar range

c1ccc([C@H]2CN3CCSC3=N2)cc1 [Levamisole]
effectiveness of inhibition of MV activity compared with ouabain [4]: more effective

Se-[(2,2-dimethyl-1,3-dioxolan-4-yl) methyl] 4-chlorobenzoselenolate [Se-DMC]
NPSH content [5]: No alteration | RS levels in paw [5]: reduced the RS levels

CO[C@@H]1[C@@H](OC(N)=O)[C@@H](O)[C@H](Oc2ccc3c(O)c(NC(=O)c4ccc(O)c(CC=C(C)C)c4)c(=O)oc3c2C)OC1(C)C [Novobiocin]
inhibition at 0.1 µM [6]: 60 ± 7%

C[C@@H]1O[C@@H](O[C@H]2C[C@@H](O)[C@]3(CO)[C@H]4[C@H](O)C[C@]5(C)[C@@H](C6=CC(=O)OC6)CC[C@]5(O)[C@@H]4CC[C@]3(O)C2)[C@H](O)[C@H](O)[C@H]1O [ouabain]
MV activity in the presence of inhibitor ([4]; 31P-NMR and colorimetric techniques): ~95%

N=C(N)c1ccccc1 [benzamidine]
inhibition of CE-AρBza ([7]; BTEE as substrate): 100% | inhibition of CE-AρBza ([7]; L-TAME as substrate): 77%

COC(=O)Nc1nc2ccc(C(=O)c3ccccc3)cc2[nH]1 [mebendazole]
MIC (C. neoformans (ATCC H99)): 0.047 to 3.12 µM (≈ 0.0139 to 0.923 µg/mL)

Clc1ccc2c([Se]c3ccccc3)ccnc2c1 [4-PSQ, 7-Chloro-4-(phenylselanyl) quinoline]
hypersensitivity [8]: reversed hypersensitivity induced by OXA and aging | RS and NOx levels ([8]; both ages): reduced the RS and NOx levels

DCPIB
currents ([9]; IGR37 cells): not in IGR37 cells | currents ([9]; Panc1, MiaPaca2 and IGR39 cells): dramatic increase of currents | Ca2+ influx (IGR39 cells): induces a rapid Ca2+ influx

CO/C1=C\C(C)=C\[C@@H](C)[C@@H](O)[C@@H](C)C/C(C)=C/C=C/[C@H](OC)[C@@H]([C@@H](C)[C@@H](O)[C@H](C)C2(O)C[C@@H](O)[C@H](C)[C@@H](C(C)C)O2)OC1=O (some centres unmarked) [bafilomycin]
Ki (gill V(H+)-ATPase; Grande river population): 0.0212 ± 0.0013 µM | Ki (gill V(H+)-ATPase; Tietê river population): 0.0351 ± 0.0011 µM

O=C(/C=C/c1ccc(O)c(O)c1)OCCc1ccccc1 [CAPE, phenethyl ester of caffeic acid]
protein aggregation (α-synuclein): did not inhibit

CC(C)(O)c1ccccc1CC[C@@H](SCC1(CC(=O)O)CC1)c1cccc(/C=C/c2ccc3ccc(Cl)cc3n2)c1 [Montelukast]
inhibition at 0.1 µM [6]: 62 ± 8%

Rhodium chloride [RhCl3]
paw edema (paw edema): able to reduce paw edema

N-acetylcysteine [NAC]
concentration shown to inhibit biofilm formation [10]: 12.5 mg/mL

CC1=C(C(=O)O)N2C(=O)[C@@H](NC(=O)[C@H](N)c3ccccc3)[C@H]2SC1 [Cephalexin]
degradation [11]: highly sucesptible to degradation

CC(C)c1cc2c(c(O)c1O)C[C@@]13CCCC(C)(C)[C@@H]1C[C@@H]2O3 [brussonol]
significant inhibition of LbOYE activity [12]: did not show significant inhibition

CC(C)c1cccc(C(C)C)c1O [P, propofol]
deformability index (DI) [1]: decreases | erythrocyte elastic modulus (μ) [1]: significant increase

Piperlongumine [PPL]
binding constants (rat serum albumin (RSA)): moderate binding constants

COC(=O)Nc1nc2cc(C(=O)c3ccc(F)cc3)ccc2[nH]1 [flubendazole]
MIC (C. neoformans (ATCC H99)): 0.047 to 3.12 µM (≈ 0.0147 to 0.979 µg/mL)
